“And” between values parts separate entries of the source, which are not always exact repeats. Equal values may be shown once.
Experiments:
Assay type in all cases: cell-based
BTK = molecular target: T1, BTK (Homo sapiens, UniProt Q06187+Q13490); assay: THP-1 dose-dependent degradation of endogenous BTK; conditions: replicates
T1 construct: a THP-1 cell line which natively expresses both BTK and cIAP1; host or cells: THP-1
Procedure: Human monocytic leukemia THP-1 Cells (ATCC TIB202) were grown in RPMI 1640 complete media (Gibco Cat# 11875-093), 10% Heat Inactivated FBS (Gibco Cat# 10438026), 2 mM L-Glutamine (Gibco Cat# 25030-081), 10 mM HEPES (Lonza Cat# 17-737E). Cells were cultured to approximately 0.8 × 10^6 cells/mL, centrifuged at 100 x g at 4 °C for 5 min, and resuspended in growth medium at 1.25 × 10^6 cells/mL, and 750 µL were plated in a 24-well format. Compounds were serially diluted in DMSO and individually added to pre-warmed complete media at a 4x concentration. Subsequently, 250 µL was added to their respective well, making it a 1x concentration. Endpoint viability was ≥95%. Each experiment was performed with n = 3 independent experiments. Three datapoints are missing due to blot.
(§1) Dose-dependent Degradation was analyzed using ImageJ (NIH, version 1.50i). Densiometric analysis was performed, normalized to DMSO signal, and analyzed using GraphPad Prism (Version 9.0.0 (121)). Non-linear fit one-phase decay analysis was used to obtain DC50 values. When we observed a hook effect, some points were excluded as part of the fit. In Supplementary Fig. 7B the complete curve was fit using GraphPad Prism non-linear regression bell-shaped curve where X is the concentration. However, using this method we were unable to obtain stable values for our DC50. SEM error was plotted for each point. When determining statistically significant differences, we used a two-sided student’s unpaired T-Test.

BTK^FL-C481S [1] = molecular target: T2, BTK^FL-C481S (Homo sapiens, UniProt Q06187+Q13490, C481S); assay: Expi293 dose-dependent BTK degradation (western blot), BTK^FL-C481S co-transfected with cIAP1^FL; conditions: for C481S BTK blot signal normalized to DMSO: replicates; for DC50: Expi293, cIAP1^FL co-transfected, ~18 h, 3 experiments
T2 construct: we used a full-length BTK (aa1-659) with a C terminal Tobacco Etch Virus protease (TEV) site; expressed in transfected cells; host or cells: Expi293 (HEK293)
Procedure: (§2) Gibco Expi293 cell line Transfection Kit (Cat.# A14524) was cultured according to the manufacturers conditions. Cells were grown at 37 °C with 5% CO2 to 4 × 10^6 cells/mL using an orbital shaker set to 95 RPM. Next cells were split to 2 × 10^6 cells/mL and transfected with plasmid DNA at a 1 µg/mL final concentration in Optimem (Gibco 31985070) using the Expifectamine 293 transfection reagent according to manufacturer’s conditions. After approximately 18 h, enhancers 1 and 2 (provided with kit). Viability was typically about 85%. When cIAP1^FL was transfected, it was detected via α-cIAP1 antibody there was typically some autoubiquitination detected, and thus often appeared as a laddered or smeared band via western blotting. When BTK^FL variants were transfected, they were detected using anti-BTK antibody (D3H5).
For dose-dependent degradation assays, cells were plated in a 24-well format and placed on a separate orbital shaker set to 115 RPM. Each well was treated with prescribed compound concentrations in the same manner as with THP-1 cells, with the exception of using Expifectamine 293 growth medium in place of RPMI 1640 complete media. After approximately 18 h post-treatment cells were harvested, centrifuged at 100 x g at 4 °C, washed twice with ice-cold PBS, and resuspended in RIPA buffer supplemented with a Roche protease inhibitor cocktail (Cat. #11873580001), and benzonase nuclease (Millipore-Sigma Cat# 70664). Each sample was incubated on ice for 30 min with periodic vortexing and centrifuged at 15 Kxg for 20 min. Clarified lysate was harvested and quantified using a Pierce BCA Assay Kit (Cat. #23225), and 20 µg of the sample was loaded into a 4–15% Criterion TGX gel (Bio-Rad, 5678085) and transferred to a nitrocellulose membrane (Life Technologies Cat. #IB23001) using an iBlot 2 (Life Technologies Cat. #IB21001). Proteins were detected using an iBind system (Life Technologies SLF2020). For BTK^T474I and BTK^T474I/C481S we inferred ligand entry into cells via the autoubiquitination and dose-dependent degradation of cIAP1^FL,[58].
as §1

BTK^FL-C481S [2] = molecular target: T2, BTK^FL-C481S; assay: Expi293 time-dependent degradation of BTK^FL-C481S; conditions: 5 µM; for BTK^FL-C481S blot signal normalized to time 0: replicates
Procedure: as §2
For covalent modification detection assays, the compound was added to Expi293 cells after enhancer treatment. At each timepoint 10 mL of cells were harvested, rapidly cooled to 4 °C in an ice bath, and centrifuged at 100 x g at 4 °C for 5 min. The pellet was washed twice with ice-cold PBS, snap-frozen in liquid nitrogen, and stored at −80 °C. Each pellet was resuspended in 0.1 mL ice-cold RIPA Buffer supplemented with 40 µM BCNC (to outcompete any remaining BCCov), protease inhibitor, and benzonase, and sonicated with 10 brief blasts at power 20. Lysate was centrifuged at 15 K x g for 20 min at 4 °C and prepared for western blotting as detailed above. When samples were evaluated for covalent adduct formation, a purification step was required. Briefly, the ~1 mL of clarified lysate was added to 9 mL of FLAG binding buffer (25 mM HEPES 7.5, 300 mM NaCl, 10% glycerol). These samples were incubated with 250 µL of anti-FLAG M2 affinity resin (Millipore-Sigma Cat. # A2220) for 3 h at 4 °C with gentle nutation. Samples were washed via gravity column filtration and eluted with 0.2 mg/ml FLAG Peptide (DYKDDDDK, CPC Scientific Peptide Company). Each sample was concentrated to 0.1 mg/mL using an Amicon Ultra-15 Centrifugal filter with a 50 kDa MWCO (Millipore-Sigma Cat. # UFC905024). Details on mass spectrometry analysis are below.

BTK^T474I = molecular target: T3, BTK^T474I (Homo sapiens, UniProt Q06187+Q13490, T474I); assay: Expi293 dose-dependent degradation of BTK gatekeeper mutant; conditions: Expi293 with cIAP1^FL
T3 construct: we used a full-length BTK (aa1-659) with a C terminal Tobacco Etch Virus protease (TEV) site; expressed in transfected cells; host or cells: Expi293 (HEK293)
Procedure: as §2
For dose-dependent degradation assays, cells were plated in a 24-well format and placed on a separate orbital shaker set to 115 RPM. […] Clarified lysate was harvested and quantified using a Pierce BCA Assay Kit (Cat. #23225), and 20 µg of the sample was loaded into a 4–15% Criterion TGX gel (Bio-Rad, 5678085) and transferred to a nitrocellulose membrane (Life Technologies Cat. #IB23001) using an iBlot 2 (Life Technologies Cat. #IB21001). Proteins were detected using an iBind system (Life Technologies SLF2020). […]

T1 sequence (Q06187 whole entry): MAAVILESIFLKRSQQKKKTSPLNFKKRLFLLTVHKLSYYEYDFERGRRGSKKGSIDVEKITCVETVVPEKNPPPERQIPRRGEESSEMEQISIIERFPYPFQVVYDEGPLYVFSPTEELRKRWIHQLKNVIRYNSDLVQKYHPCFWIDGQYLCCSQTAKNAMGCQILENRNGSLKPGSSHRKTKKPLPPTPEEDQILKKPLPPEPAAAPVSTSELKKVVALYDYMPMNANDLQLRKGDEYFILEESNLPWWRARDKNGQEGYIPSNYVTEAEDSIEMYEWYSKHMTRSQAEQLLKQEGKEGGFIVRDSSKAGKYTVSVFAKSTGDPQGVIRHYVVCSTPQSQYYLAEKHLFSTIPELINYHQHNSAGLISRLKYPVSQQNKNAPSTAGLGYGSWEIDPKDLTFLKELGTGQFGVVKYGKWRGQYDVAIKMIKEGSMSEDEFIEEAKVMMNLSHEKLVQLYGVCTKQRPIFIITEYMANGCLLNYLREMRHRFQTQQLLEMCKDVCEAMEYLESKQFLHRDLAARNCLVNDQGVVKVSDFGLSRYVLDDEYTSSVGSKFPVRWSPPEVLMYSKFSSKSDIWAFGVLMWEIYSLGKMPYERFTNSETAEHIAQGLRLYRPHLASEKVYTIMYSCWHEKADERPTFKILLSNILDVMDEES
T1 sequence (Q13490 whole entry): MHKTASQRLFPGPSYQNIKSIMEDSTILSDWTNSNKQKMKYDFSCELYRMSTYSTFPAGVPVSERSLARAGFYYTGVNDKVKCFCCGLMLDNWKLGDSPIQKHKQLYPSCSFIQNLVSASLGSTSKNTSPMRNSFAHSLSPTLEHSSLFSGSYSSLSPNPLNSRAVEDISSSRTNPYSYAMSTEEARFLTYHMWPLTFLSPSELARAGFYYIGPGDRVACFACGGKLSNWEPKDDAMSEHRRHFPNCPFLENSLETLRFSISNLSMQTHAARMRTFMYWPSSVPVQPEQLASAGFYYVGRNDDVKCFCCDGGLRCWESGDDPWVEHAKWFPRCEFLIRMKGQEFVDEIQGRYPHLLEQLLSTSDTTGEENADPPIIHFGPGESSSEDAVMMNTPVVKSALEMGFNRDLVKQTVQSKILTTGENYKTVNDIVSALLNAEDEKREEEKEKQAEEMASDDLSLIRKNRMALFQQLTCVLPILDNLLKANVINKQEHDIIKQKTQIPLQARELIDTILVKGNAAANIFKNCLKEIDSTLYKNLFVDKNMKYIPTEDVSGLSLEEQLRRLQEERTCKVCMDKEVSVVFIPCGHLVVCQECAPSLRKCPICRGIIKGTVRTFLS
T2 sequence (Q06187 whole entry C481S, the tested form may be a part): as the sequence (Q06187 whole entry) above, with C481S counted along it
T2 sequence (Q13490 whole entry, the tested form may be a part): as the sequence (Q13490 whole entry) above
T3 sequence (Q06187 whole entry T474I, the tested form may be a part): as the sequence (Q06187 whole entry) above, with T474I counted along it
T3 sequence (Q13490 whole entry, the tested form may be a part): as the sequence (Q13490 whole entry) above

Compound	endogenous BTK blot signal normalized to DMSO (BTK; THP-1, 0.63 uM)	endogenous BTK blot signal normalized to DMSO (BTK; THP-1, 1.25 uM)	endogenous BTK blot signal normalized to DMSO (BTK; THP-1, 2.50 uM)	endogenous BTK blot signal normalized to DMSO (BTK; THP-1, 5.00 uM)	C481S BTK blot signal normalized to DMSO (BTK^FL-C481S [1]; 0.004883 uM)	C481S BTK blot signal normalized to DMSO (BTK^FL-C481S [1]; 0.009766 uM)	C481S BTK blot signal normalized to DMSO (BTK^FL-C481S [1]; 0.019531 uM)	C481S BTK blot signal normalized to DMSO (BTK^FL-C481S [1]; 0.039063 uM)	C481S BTK blot signal normalized to DMSO (BTK^FL-C481S [1]; 0.078125 uM)	C481S BTK blot signal normalized to DMSO (BTK^FL-C481S [1]; 0.15625 uM)	C481S BTK blot signal normalized to DMSO (BTK^FL-C481S [1]; 0.3125 uM)	C481S BTK blot signal normalized to DMSO (BTK^FL-C481S [1]; 0.625 uM)	C481S BTK blot signal normalized to DMSO (BTK^FL-C481S [1]; 1.25 uM)	C481S BTK blot signal normalized to DMSO (BTK^FL-C481S [1]; 2.5 uM)	C481S BTK blot signal normalized to DMSO (BTK^FL-C481S [1]; 5 uM)	DC50 (BTK^FL-C481S [1]) [nM]	BTK^FL-C481S blot signal normalized to time 0 (BTK^FL-C481S [2]; 0.5 h)	BTK^FL-C481S blot signal normalized to time 0 (BTK^FL-C481S [2]; 1 h)	BTK^FL-C481S blot signal normalized to time 0 (BTK^FL-C481S [2]; 2 h)	BTK^FL-C481S blot signal normalized to time 0 (BTK^FL-C481S [2]; 3.5 h)	other results
CNC(C)C(=O)NC(C(=O)N1CC(NC(=O)COCCN2CCN(CCCC(=O)N3CCCC(n4nc(-c5ccc(Oc6ccccc6)cc5)c5c(N)ncnc54)C3)CC2)CC1C(=O)NC1CCCc2ccccc21)C1CCCCC1 (centres unmarked) [BCNC]	0.00	0.00	0.00	0.00	0.87 and 1.00 (2×)	0.89 and 0.76 and 0.79	0.87 and 0.66 and 0.82	0.76 and 0.72 and 0.87	0.63 and 0.53 and 0.56	0.51 and 0.41 and 0.42	0.35 and 0.41 and 0.28	0.26 and 0.34 and 0.16	0.27 and 0.20 and 0.13	0.21 and 0.11 and 0.057	0.21 and 0.09 and 0.0641	145 ± 58	0.79 and 0.85 and 0.76	0.74 and 0.81 and 0.78	0.68 and 0.72 and 0.69	0.53 and 0.64 and 0.52	endogenous BTK blot signal normalized to DMSO (BTK; THP-1, 0.00488 uM, listed as noncov): 0.97 and 1.25 and 1.03; endogenous BTK blot signal normalized to DMSO (BTK; THP-1, 0.01 uM, listed as noncov): 1.01 and 1.22 and 0.91; endogenous BTK blot signal normalized to DMSO (BTK; THP-1, 0.02 uM, listed as noncov): 1.09 and 1.18 and 0.86; endogenous BTK blot signal normalized to DMSO (BTK; THP-1, 0.04 uM, listed as noncov): 1.06 and 1.18 and 0.70; endogenous BTK blot signal normalized to DMSO (BTK; THP-1, 0.08 uM, listed as noncov): 0.36 and 0.68 and 0.42; endogenous BTK blot signal normalized to DMSO (BTK; THP-1, 0.16 uM, listed as noncov): 0.23 and 0.28 (2×); endogenous BTK blot signal normalized to DMSO (BTK; THP-1, 0.31 uM, listed as noncov): 0.17 and 0.09 and 0.13; BTK^FL-C481S blot signal normalized to time 0 (BTK^FL-C481S [2]; 5.5 h): 0.35 and 0.44 and 0.38; BTK^FL-C481S blot signal normalized to time 0 (BTK^FL-C481S [2]; 7 h): 0.35 and 0.32 and 0.33; BTK^FL-C481S blot signal normalized to time 0 (BTK^FL-C481S [2]; 17 h): 0.00 and 0.04 (2×)
CNC(C)C(=O)NC(C(=O)N1CC(NC(=O)COCCN2CCN(CC=CC(=O)N3CCCC(n4nc(-c5ccc(Oc6ccccc6)cc5)c5c(N)ncnc54)C3)CC2)CC1C(=O)NC1CCCc2ccccc21)C1CCCCC1 (centres unmarked) [BCCov]	0.18 and 0.24 and 0.08	0.13 and 0.23 and 0.0336	0.11 and 0.00 and 0.00241	0.056 and 0.00 (2×)	0.87 and 0.90 and 0.91	0.89 and 0.76 and 0.79	0.87 and 0.66 and 0.82	0.76 and 0.72 and 0.87	0.63 and 0.53 and 0.56	0.51 and 0.41 and 0.42	0.35 and 0.41 and 0.28	0.26 and 0.34 and 0.16	0.27 and 0.20 and 0.13	0.21 and 0.11 and 0.057	0.21 and 0.09 and 0.0641	122 ± 44	0.75 and 0.78 and 0.82	0.77 and 0.74 and 0.81	0.71 and 0.76 and 0.72	0.60 and 0.65 and 0.66	endogenous BTK blot signal normalized to DMSO (BTK; THP-1, 0.00488 uM): 1.05 and 0.90 and 1.04; endogenous BTK blot signal normalized to DMSO (BTK; THP-1, 0.01 uM): 1.07 and 1.23 and 0.79; endogenous BTK blot signal normalized to DMSO (BTK; THP-1, 0.02 uM): 0.87 and 1.16 and 0.59; endogenous BTK blot signal normalized to DMSO (BTK; THP-1, 0.04 uM): 0.60 and 1.52 and 0.48; endogenous BTK blot signal normalized to DMSO (BTK; THP-1, 0.08 uM): 0.50 and 0.87 and 0.33; endogenous BTK blot signal normalized to DMSO (BTK; THP-1, 0.16 uM): 0.45 and 0.72 and 0.21; endogenous BTK blot signal normalized to DMSO (BTK; THP-1, 0.31 uM): 0.22 and 0.32 and 0.13; degradation of BTK^T474I (BTK^T474I): loss of activity; rate of BTK^FL-C481S degradation compared with BTK^FL (BTK^FL-C481S [2]): slower rate; BTK^FL-C481S blot signal normalized to time 0 (BTK^FL-C481S [2]; 5.5 h): 0.58 and 0.55 and 0.61; BTK^FL-C481S blot signal normalized to time 0 (BTK^FL-C481S [2]; 7 h): 0.41 and 0.48 and 0.42; BTK^FL-C481S blot signal normalized to time 0 (BTK^FL-C481S [2]; 17 h): 0.07 (2×) and 0.02

From publication PMC9981747, “A covalent BTK ternary complex compatible with targeted protein degradation” (Nature Communications, 2023)
